Experiments:
ragweed [1] = test: Test C preemergence; type: in vivo, Ambrosia artemisiifolia
Procedure, shortened: (§1)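 Seeds sown in loam soil–sand blend received a directed preemergence soil spray of test chemical in non-phytotoxic solvent with surfactant; postemergence plants (2–10 cm, one- to two-leaf stage) were sprayed with the same formulation. Greenhouse-held 10 days, then visually rated for injury versus untreated controls, 0 (no effect) to 100 (complete control).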

sedge, umbrella = test: Test D flooded paddy test; type: in vivo, Cyperus difformis; details: 250 g ai/ha, applied to paddy water, visual rating after 13 to 14 days, scale 0 to 100 (0 no effect, 100 complete control)
Procedure, shortened: (§2)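 2-leaf plants; flood 3 cm above soil; compound dosed into paddy water; greenhouse 13–14 d; visual rating vs controls, 0–100 (100 = complete control); dash = not tested.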

barnyardgrass [2] = test: Test C preemergence; type: in vivo, Echinochloa crusgalli
Procedure, shortened: as §1

horseweed = test: Test C postemergence; type: in vivo, Erigeron canadensis; details: 10 days, 0 to 100 scale (0 no effect, 100 complete control)
Procedure, shortened: as §1

barnyardgrass [3] = test: Test D flooded paddy test; type: in vivo, Echinochloa crus-galli; details: 250 g ai/ha, applied to paddy water, visual rating after 13 to 14 days, scale 0 to 100 (0 no effect, 100 complete control)
Procedure, shortened: as §2

kochia [4] = test: Test C preemergence; type: in vivo, Bassia scoparia
Procedure, shortened: as §1

green foxtail [5] = test: Test C postemergence; type: in vivo, Setaria viridis; details: 10 days, 0 to 100 scale (0 no effect, 100 complete control)
Procedure, shortened: as §1

blackgrass [6] = test: Test C postemergence; type: in vivo, Alopecurus myosuroides; details: 10 days, 0 to 100 scale (0 no effect, 100 complete control)
Procedure, shortened: as §1

oat, wild [7] = test: Test C preemergence; type: in vivo, Avena fatua
Procedure, shortened: as §1

oat, wild [8] = test: Test C postemergence; type: in vivo, Avena fatua; details: 10 days, 0 to 100 scale (0 no effect, 100 complete control)
Procedure, shortened: as §1

ducksalad = test: Test D flooded paddy test; type: in vivo, Heteranthera limosa; details: 250 g ai/ha, applied to paddy water, visual rating after 13 to 14 days, scale 0 to 100 (0 no effect, 100 complete control)
Procedure, shortened: as §2

pigweed, palmer [9] = test: Test C postemergence; type: in vivo, Amaranthus palmeri; details: 10 days, 0 to 100 scale (0 no effect, 100 complete control)
Procedure, shortened: as §1

rice = test: Test D flooded paddy test; type: in vivo, Oryza sativa; details: 250 g ai/ha, applied to paddy water, visual rating after 13 to 14 days, scale 0 to 100 (0 no effect, 100 complete control)
Procedure, shortened: as §2

green foxtail [10] = test: Test C preemergence; type: in vivo, Setaria viridis
Procedure, shortened: as §1

ryegrass, Italian [11] = test: Test C preemergence; type: in vivo, Lolium multiflorum
Procedure, shortened: as §1

galium = test: Test C postemergence; type: in vivo, Galium aparine; details: 10 days, 0 to 100 scale (0 no effect, 100 complete control)
Procedure, shortened: as §1

wheat [12] = test: Test C preemergence; type: in vivo, Triticum aestivum
Procedure, shortened: as §1

soybean [13] = test: Test C postemergence; type: in vivo, Glycine max; details: 10 days, 0 to 100 scale (0 no effect, 100 complete control)
Procedure, shortened: as §1

blackgrass [14] = test: Test C preemergence; type: in vivo, Alopecurus myosuroides
Procedure, shortened: as §1

ragweed [15] = test: Test C postemergence; type: in vivo, Ambrosia artemisiifolia; details: 10 days, 0 to 100 scale (0 no effect, 100 complete control)
Procedure, shortened: as §1

pigweed, palmer [16] = test: Test C preemergence; type: in vivo, Amaranthus palmeri
Procedure, shortened: as §1

corn [17] = test: Test C preemergence; type: in vivo, Zea mays
Procedure, shortened: as §1

corn [18] = test: Test C postemergence; type: in vivo, Zea mays; details: 10 days, 0 to 100 scale (0 no effect, 100 complete control)
Procedure, shortened: as §1

soybean [19] = test: Test C preemergence; type: in vivo, Glycine max
Procedure, shortened: as §1

wheat [20] = test: Test C postemergence; type: in vivo, Triticum aestivum; details: 10 days, 0 to 100 scale (0 no effect, 100 complete control)
Procedure, shortened: as §1

ryegrass, Italian [21] = test: Test C postemergence; type: in vivo, Lolium multiflorum; details: 10 days, 0 to 100 scale (0 no effect, 100 complete control)
Procedure, shortened: as §1

barnyardgrass [22] = test: Test C postemergence; type: in vivo, Echinochloa crusgalli; details: 10 days, 0 to 100 scale (0 no effect, 100 complete control)
Procedure, shortened: as §1

kochia [23] = test: Test C postemergence; type: in vivo, Bassia scoparia; details: 10 days, 0 to 100 scale (0 no effect, 100 complete control)
Procedure, shortened: as §1

[24] = 500 g ai/ha, preemergence, 0 to 100 scale (0 no effect, 100 complete control)
[25] = Preemergence, 125 g ai/ha, 0 to 100 scale, 0 no effect, 100 complete control

SMILES: COCc1ncn(-c2ccc(C)c(C(=O)N3C[C@H](C)Oc4c(Cl)cccc43)c2)n1 [Compound 357]
- Ragweed plant response rating (ragweed [1]; [24]): 60
- Plant response rating, Ragweed (ragweed [1]; [25]): 10
- Plant response rating, Sedge, Umbrella (Flood) (sedge, umbrella): 90
- Barnyardgrass plant response rating (barnyardgrass [2]; [24]): 100
- Plant response rating, Barnyardgrass (barnyardgrass [2]; [25]): 80
- Plant response rating, Horseweed (horseweed; 500 g ai/ha, postemergence): 80
- Plant response rating, Horseweed (horseweed; Postemergence, 125 g ai/ha): 60
- Plant response rating, Barnyardgrass (Flood) (barnyardgrass [3]): 10
- Kochia plant response rating (kochia [4]; [24]): 90
- Plant response rating, Kochia (kochia [4]; [25]): 50
- Plant response rating, Foxtail, Green (green foxtail [5]; 500 g ai/ha, postemergence): 90
- Plant response rating, Foxtail, Green (green foxtail [5]; Postemergence, 125 g ai/ha): 30
- Plant response rating, Blackgrass (blackgrass [6]; 500 g ai/ha, postemergence): 100
- Plant response rating, Blackgrass (blackgrass [6]; Postemergence, 125 g ai/ha): 90
- Oat, Wild plant response rating (oat, wild [7]; [24]): 90
- Plant response rating, Oat, Wild (oat, wild [7]; [25]): 60
- Plant response rating, Oat, Wild (oat, wild [8]; 500 g ai/ha, postemergence): 90
- Plant response rating, Oat, Wild (oat, wild [8]; Postemergence, 125 g ai/ha): 30
- Plant response rating, Ducksalad (Flood) (ducksalad): 45
- Plant response rating, Pigweed, Palmer (pigweed, palmer [9]; 500 g ai/ha, postemergence): 100
- Plant response rating, Pigweed, Palmer (pigweed, palmer [9]; Postemergence, 125 g ai/ha): 50
- Plant response rating, Rice (Flood) (rice): 0
- Foxtail, Green plant response rating (green foxtail [10]; [24]): 100
- Plant response rating, Foxtail, Green (green foxtail [10]; [25]): 100
- Ryegrass, Italian plant response rating (ryegrass, Italian [11]; [24]): 100
- Plant response rating, Ryegrass, Italian (ryegrass, Italian [11]; [25]): 100
- Plant response rating, Galium (galium; 500 g ai/ha, postemergence): 100
- Plant response rating, Galium (galium; Postemergence, 125 g ai/ha): 100
- Wheat plant response rating (wheat [12]; [24]): 70
- Plant response rating, Wheat (wheat [12]; [25]): 0
- Plant response rating, Soybean (soybean [13]; 500 g ai/ha, postemergence): 100
- Plant response rating, Soybean (soybean [13]; Postemergence, 125 g ai/ha): 100
- Blackgrass plant response rating (blackgrass [14]; [24]): 100
- Plant response rating, Blackgrass (blackgrass [14]; [25]): 80
- Plant response rating, Ragweed (ragweed [15]; 500 g ai/ha, postemergence): 60
- Plant response rating, Ragweed (ragweed [15]; Postemergence, 125 g ai/ha): 20
- Pigweed, Palmer plant response rating (pigweed, palmer [16]; [24]): 100
- Plant response rating, Pigweed, Palmer (pigweed, palmer [16]; [25]): 90
- Corn plant response rating (corn [17]; [24]): 20
- Plant response rating, Corn (corn [17]; [25]): 10
- Plant response rating, Corn (corn [18]; 500 g ai/ha, postemergence): 80
- Plant response rating, Corn (corn [18]; Postemergence, 125 g ai/ha): 40
- Soybean plant response rating (soybean [19]; [24]): 100
- Plant response rating, Soybean (soybean [19]; [25]): 100
- Plant response rating, Wheat (wheat [20]; 500 g ai/ha, postemergence): 80
- Plant response rating, Wheat (wheat [20]; Postemergence, 125 g ai/ha): 20
- Plant response rating, Ryegrass, Italian (ryegrass, Italian [21]; 500 g ai/ha, postemergence): 100
- Plant response rating, Ryegrass, Italian (ryegrass, Italian [21]; Postemergence, 125 g ai/ha): 50
- Plant response rating, Barnyardgrass (barnyardgrass [22]; 500 g ai/ha, postemergence): 100
- Plant response rating, Barnyardgrass (barnyardgrass [22]; Postemergence, 125 g ai/ha): 50
- Plant response rating, Kochia (kochia [23]; 500 g ai/ha, postemergence): 70
- Plant response rating, Kochia (kochia [23]; Postemergence, 125 g ai/ha): 50

— patent publication US20260262643A1, “HERBICIDAL BENZOXAZINES” (FMC CORPORATION, priority 2022, published 2026)
